Entries after “also recorded” stand apart in the source; their conditions may differ. Like-named read-outs stand apart in the source and are kept apart here.
Legend:
[1] = target: T1, human Nav1.7 (Homo sapiens, UniProt Q15858); test: whole-cell patch clamp, human Nav1.7 transiently expressed in HEK 293 cells; assay type: cell-based
T1 construct: expressed in transfected cells; host or cells: HEK293 cells, transient transfection with Lipofectamine 2000
From the text: Figure 2 Inhibitory effect of synthetic μ-TRTX-Hhn1b on Nav1.7 expressed on HEK 293 cells. […] (B) The inhibition of μ-TRTX-Hhn1b on Nav1.7 was dose-dependent. […] Data are plotted as a fraction of the maximum conductance. The voltage-dependence of steady-state inactivation was estimated using a standard double-pulse protocol, in which a 20-ms depolarizing test potential of 0 mV followed a 500-ms prepulse at potentials that ranged from −130 to −10 mV with a 10-mV increment. Cells were held at −100 mV.
A human Nav1.7 channel plasmid (accession No. NM_002977) and a plasmid for green ﬂuorescent protein were transiently transfected into human embryonic kidney 293 (HEK293) cells using Lipofectamine 2000 (Invitrogen, Carlsbad, CA, USA) according to the manufacturer’s instructions. HEK293 cells were grown under standard tissue culture conditions (5% CO2; 37 °C) in DMEM supplemented with 10% FBS. The β1 subunit was cotransfected with the Nav1.7 channel to increase the current density. Cells with green ﬂuorescence were selected for whole-cell patch-clamp recording at 36–72 h after transfection. Patch-clamp experiments were performed at room temperature. Suction pipettes (2.0–3.0 MΩ) were made from borosilicate glass capillary tubes using a two-step vertical micropipette puller. The pipette solution contained (in mM): CsCl 145, MgCl2∙6H2O 4, HEPES 10, EGTA 10, glucose 10, ATP 2 (pH 7.2). The external solution contained (in mM): NaCl 145, KCl 2.5, CaCl2 1.5, MgCl2.6H2O 1.2, HEPES 10, glucose 10 (pH 7.4). Experimental data were collected and analyzed using the program Pulse/Pulsefit 8.0 (HEKA Electronics, Pfalz, Germany). Macroscopic sodium currents were filtered at 5 kHz and digitized at 20 kHz with an EPC-9 patch-clamp amplifier (HEKA Electronics, Pfalz, Germany). Series resistance was kept near 5 MΩ and compensated to 65%–70%; linear capacitative and leakage currents were digitally subtracted using the P/4 protocol.

[2] = system: acetic acid-induced abdominal constriction responses in mice; assay type: in vivo, mouse (ICR); settings: 15 min before acetic acid, 30 min count, n = 6
Procedure: The abdominal constriction responses induced by intraperitoneal (i.p.) injection of 0.2 mL acetic acid (0.8%), including contraction of the abdominal muscle and stretching of the hind limbs, were performed according to procedures described by Collier et al.. Mice (male, weighing 20–25 g) were pre-treated with the test samples dissolved in saline by intraperitoneal (i.p.) injection for 15 min prior to acetic acid injection. Control animals received the same volume of vehicle (saline: 0.9% sodium chloride solution). After the challenge, mice were individually placed into open polyvinyl cages (30 cm × 40 cm × 30 cm), and the abdominal constriction responses were counted cumulatively during 30 min, which was represented as the sum of constriction (S). The inhibition of pain responses was calculated by the equation as follows: inhibition of pain responses % = (Ssaline − Sdrug)/Ssaline per animal. One hundred percent corresponds to complete reversal of pain, equivalent to the non-injury value, and 0% corresponds to the value from the saline group.

[3] = system: formalin-induced pain behaviors in rats; test: formalin-induced inflammatory rat model; assay type: in vivo, rat (Sprague-Dawley); settings: for pain score over the 40 min period: mean ± SEM, saline 569.2 ± 43.5 s
Procedure: Acute and chronic nociceptive responses were measured using the rat paw formalin test as descried by Dubission and modified by Malmberg. Adult Sprague-Dawley rats (male, weighing 180–220 g) were used for this behavioral test. During the test, each rat was placed into open polyvinyl cages (30 cm × 40 cm × 30 cm) and at least 30 min before administration of the toxin. All agents were administered 30 min prior to s.c. intraplantar formalin injection. A volume of 50 μL formalin (5%) solution was used as previously described and injected into the plantar surface of one hind paw. Lifting, favoring, licking, shaking and flinching of the injected paw were recorded as nociceptive responses. The total time of the nociceptive response was measured every 5 min and […] (mean ± SEM). Recording of nociceptive behavior commenced immediately after formalin injection and was continued for 40 min.

[4] = system: SNI-induced mechanical allodynia in rats; assay type: in vivo, rat (Sprague-Dawley); settings: for withdrawal threshold to von Frey hair: 200 μg/kg i.p., mean ± SEM, n = 6
Procedure: The spared nerve injury was produced as described previously by Decosterd and Woolf. The rats (male, weighing 180–220 g) were anesthetized with ketamine (300 mg/kg) and placed on a pad. Aseptic techniques were used, and the sciatic nerve and its three terminal branches, including the sural, common peroneal and tibial nerves, were exposed, ligated and transected. Muscle and skin were closed with 4-0 polydiaxone and wound clips. Sham controls involved the exposure of the sciatic nerve and its branches without any lesion.
Allodynia was assessed 3 days after SNI surgery, and only rats that developed allodynia, as defined by a significant decrease in their mechanical threshold using von Frey filament, were used. Tactile allodynia was assessed with calibrated von Frey filaments (Stoelting, Wood Dale, IL, USA) using an up-down paradigm. Mechanical sensitivity was determined by applying a series of twenty calibrated von Frey filaments (0.008–2 g, 2–60 g) to the plantar aspect of the left hind paw. […] A response was indicated by brisk withdrawal of the hind paw.

[5] = system: mice and rats; test: observation of death and abnormal behaviors in the pain tests; assay type: in vivo
[6] = system: Nav1.2, Nav1.3, Nav1.4, Nav1.5, Nav1.7; settings: reference not given; cited from earlier work
[7] = system: neuronal TTX-S VGSCs in rat dorsal root ganglion (DRG) cells; settings: cited from earlier work
From the text: μ-TRTX-Hhn1b (HNTX-IV) is a 35-residue peptide from tarantula Ornithoctonus hainana (Haplopelma hainanum) venom. The amino acid sequence is […]. The peptide amidated at its C-terminal has a high proportion of basic residues and is crosslinked by three disulfide bonds. […] Therefore, the rotarod latency test was used to access the motor side effects of μ-TRTX-Hhn1b in rats.

T1 sequence (Q15858 other isoform, or with tags, fused parts or gaps): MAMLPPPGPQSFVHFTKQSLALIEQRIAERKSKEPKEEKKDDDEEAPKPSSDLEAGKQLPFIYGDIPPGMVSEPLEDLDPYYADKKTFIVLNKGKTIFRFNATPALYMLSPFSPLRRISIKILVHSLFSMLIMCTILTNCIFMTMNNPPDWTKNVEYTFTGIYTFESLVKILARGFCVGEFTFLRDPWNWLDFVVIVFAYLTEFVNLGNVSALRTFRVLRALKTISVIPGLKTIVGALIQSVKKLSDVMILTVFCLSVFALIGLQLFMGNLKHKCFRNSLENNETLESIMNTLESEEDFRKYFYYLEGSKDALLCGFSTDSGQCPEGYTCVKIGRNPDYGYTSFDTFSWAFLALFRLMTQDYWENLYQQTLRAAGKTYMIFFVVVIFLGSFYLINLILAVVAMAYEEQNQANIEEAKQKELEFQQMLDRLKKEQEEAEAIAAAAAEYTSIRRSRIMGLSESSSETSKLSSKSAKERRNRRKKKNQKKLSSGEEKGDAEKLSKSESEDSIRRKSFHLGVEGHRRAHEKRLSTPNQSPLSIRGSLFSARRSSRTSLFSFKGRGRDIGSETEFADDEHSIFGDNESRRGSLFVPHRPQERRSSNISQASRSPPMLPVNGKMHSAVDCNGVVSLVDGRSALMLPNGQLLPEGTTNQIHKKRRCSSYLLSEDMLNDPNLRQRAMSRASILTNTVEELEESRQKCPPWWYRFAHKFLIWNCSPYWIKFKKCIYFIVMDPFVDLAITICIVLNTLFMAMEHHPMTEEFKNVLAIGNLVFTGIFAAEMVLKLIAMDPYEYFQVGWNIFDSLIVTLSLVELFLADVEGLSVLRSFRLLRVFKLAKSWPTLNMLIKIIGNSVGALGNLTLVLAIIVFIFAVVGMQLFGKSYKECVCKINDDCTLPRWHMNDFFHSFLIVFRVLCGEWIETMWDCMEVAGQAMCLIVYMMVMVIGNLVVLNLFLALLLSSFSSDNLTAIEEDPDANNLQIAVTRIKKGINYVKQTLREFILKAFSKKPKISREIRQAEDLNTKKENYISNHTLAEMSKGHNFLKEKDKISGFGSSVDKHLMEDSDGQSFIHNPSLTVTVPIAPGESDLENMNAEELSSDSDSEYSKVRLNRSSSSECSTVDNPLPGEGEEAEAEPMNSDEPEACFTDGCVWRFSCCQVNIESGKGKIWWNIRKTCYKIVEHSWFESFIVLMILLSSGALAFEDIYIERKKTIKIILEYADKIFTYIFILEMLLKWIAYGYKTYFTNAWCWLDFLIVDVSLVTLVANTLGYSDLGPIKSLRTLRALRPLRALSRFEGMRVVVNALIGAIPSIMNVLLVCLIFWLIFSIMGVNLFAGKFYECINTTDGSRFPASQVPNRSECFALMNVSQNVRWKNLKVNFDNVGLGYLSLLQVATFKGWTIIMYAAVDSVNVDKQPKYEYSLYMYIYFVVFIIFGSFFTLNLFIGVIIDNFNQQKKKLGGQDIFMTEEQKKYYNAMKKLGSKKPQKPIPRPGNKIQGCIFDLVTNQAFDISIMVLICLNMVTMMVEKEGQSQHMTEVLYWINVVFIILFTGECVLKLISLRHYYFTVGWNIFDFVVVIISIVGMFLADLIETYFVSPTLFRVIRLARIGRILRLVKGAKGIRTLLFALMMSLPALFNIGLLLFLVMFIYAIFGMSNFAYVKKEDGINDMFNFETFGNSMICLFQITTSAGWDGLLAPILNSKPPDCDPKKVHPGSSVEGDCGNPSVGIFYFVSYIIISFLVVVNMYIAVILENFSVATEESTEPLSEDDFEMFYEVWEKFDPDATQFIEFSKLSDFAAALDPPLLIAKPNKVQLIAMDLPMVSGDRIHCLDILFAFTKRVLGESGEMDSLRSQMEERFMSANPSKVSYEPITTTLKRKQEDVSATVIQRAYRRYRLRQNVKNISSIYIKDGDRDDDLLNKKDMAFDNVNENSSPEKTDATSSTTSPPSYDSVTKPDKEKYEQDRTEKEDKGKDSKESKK
T1 sequence (Q07699 19-218, further chain): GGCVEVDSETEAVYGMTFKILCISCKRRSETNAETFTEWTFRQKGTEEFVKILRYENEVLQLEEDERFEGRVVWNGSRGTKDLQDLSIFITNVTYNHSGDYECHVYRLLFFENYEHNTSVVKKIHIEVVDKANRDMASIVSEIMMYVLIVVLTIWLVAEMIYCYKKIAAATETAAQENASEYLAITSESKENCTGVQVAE

**Q.** What does the source list for `CC[C@H](C)[C@H](NC(=O)[C@H](CCC(=O)O)NC(=O)[C@H](Cc1ccc(O)cc1)NC(=O)[C@H](CCCCN)NC(=O)[C@@H]1CSSC[C@@H]2NC(=O)[C@H](CCC(N)=O)NC(=O)[C@H](CC(=O)O)NC(=O)[C@H](CC(N)=O)NC(=O)[C@H](CO)NC(=O)[C@@H]3CCCN3C(=O)[C@H](CC(N)=O)NC(=O)[C@@H]3CSSC[C@H](NC(=O)[C@H](C(C)C)NC(=O)[C@H](CC(C)C)NC(=O)[C@H](CC(N)=O)NC(=O)[C@H](CO)NC(=O)[C@H](CO)NC(=O)[C@H](CCCCN)NC(=O)[C@H](CSSC[C@H](NC(=O)[C@@H](N)CCC(=O)O)C(=O)N[C@@H](CC(C)C)C(=O)NCC(=O)N[C@@H](Cc4ccccc4)C(=O)NCC(=O)N[C@@H](CCCCN)C(=O)NCC(=O)N3)NC2=O)C(=O)N[C@@H](CO)C(=O)N[C@@H](CCCNC(=N)N)C(=O)N[C@@H](CCCCN)C(=O)N[C@@H](Cc2c[nH]cn2)C(=O)N[C@@H](CCCNC(=N)N)C(=O)N[C@@H](Cc2c[nH]c3ccccc23)C(=O)N1)C(N)=O` [μ-TRTX-Hhn1b]?
**A.** effect on activation and inactivation of Nav1.7 ([1]; 50 nM synthetic peptide): did not significantly alter the activation (C) and steady-state inactivation (D) of Nav1.7; also recorded: inhibited the peak current of Nav1.7 without significant alteration of the activation and inactivation kinetics of Nav1.7; half-activation voltage of Nav1.7 ([1]; 50 nM synthetic peptide, Boltzmann fit): −23.0 ± 0.4 mV; half-inactivation voltage of Nav1.7 ([1]; 50 nM synthetic peptide, steady-state inactivation, Boltzmann fit): −47.1 ± 0.3 mV; τon, time-dependent inhibition of Nav1.7 ([1]; 100 nM synthetic peptide, HEK 293 cells): 20.5 ± 0.3 s; inhibitory effect of synthetic peptide compared with native toxin ([1]; human Nav1.7 in HEK 293 cells): same inhibitory effect on human Nav1.7 current transiently expressed in HEK 293 cells as the native toxin; IC50 ([1]; synthetic peptide, human Nav1.7 + β1 subunit in HEK 293 cells, whole-cell patch clamp, room temperature, 50-ms depolarization from −80 mV to −10 mV, mean ± S.E., five to eight cells, read-out: IC50, inhibition of Nav1.7 current): ~21 nM; inhibition of pain responses (abdominal constriction) ([2]; 25.0 μg/kg i.p., p < 0.05): 25.2%; inhibition of pain responses (abdominal constriction) ([2]; 100 μg/kg i.p., p < 0.01): 55.6%; pain score over the 40 min period ([3]; 50 µg/kg i.p., n = 6, p < 0.05): 458.5 ± 59.9 s; pain score over the 40 min period ([3]; 100 µg/kg i.p., n = 6, p < 0.01): 346.0 ± 46.2 s; pain score over the 40 min period ([3]; 200 µg/kg i.p., n = 6, p < 0.01): 199.8 ± 32.6 s; antinociceptive activity compared with morphine ([3]; 200 µg/kg peptide vs 100 µg/kg morphine, i.p.): antinociceptive activity similar to 100 µg/kg of morphine; effect on pain responses, early phase ([3]; early phase (0–5 min), 50, 100 or 200 µg/kg i.p.): not in the early phases; also recorded: little effect; suppression of pain behaviors, late phase ([3]; late phase (15–30 min), 50, 100 or 200 µg/kg i.p.): dose-dependent suppression of pain behaviors; also recorded: significantly inhibited; reversal of SNI-induced mechanical allodynia ([4]; 50 µg/kg, 100 µg/kg or 200 µg/kg i.p., n = 6 per group): depressed in a dose-dependent manner; also recorded: significantly reversed SNI-induced allodynia; withdrawal threshold to von Frey hair ([4]; 60 min after injection, saline 1.4 ± 0.4 g, p < 0.01): 8.8 ± 0.9 g; withdrawal threshold to von Frey hair ([4]; 100 min after injection, p < 0.05): 4.0 ± 0.6 g; duration of antinociceptive effect ([4]; i.p.): more than 100 min; duration of antinociceptive effect relative to mexiletine ([4]; i.p.): about two-fold longer than that of mexiletine; side effects ([5]; 0.2 mg/kg): inactivity and paralysis; abnormal behaviors ([5]; highest dose, some mice and rats): inactivity and paralysis, were observed in some mice and rats; animal death ([5]; in the three pain tests / all tests): no animal death was observed; also recorded: no animal death occurred in all tests; sensitivity of Nav1.7 relative to other channels [6]: Nav1.7 is the most sensitive to μ-TRTX-Hhn1b; inhibition of other TTX-S VGSCs ([7]; at a high concentration, reference not given): also inhibits other TTX-S VGSCs in rat DRG cells at a high concentration; inhibition of neuronal TTX-S VGSCs [7]: specifically inhibits the neuronal TTX-S VGSCs in rat dorsal root ganglion (DRG) cells
